Here are results for three molecules from ChEMBL document CHEMBL3244189, “Synthesis and antitumor properties of 7-deoxy-7-[(cis- and trans-3-aminocyclohexane)thio]carminomycinone” (1979).

Assay type in all cases: functional
In test [1] the test system is Enterobacteria phage lambda. Put plainly: Induction of lambda phage production in Escherichia coli W1709 (lambda) assessed as plaque formation at 3.1 ug/ml preincubated for 30 mins followed by heart infusion broth and glucose addition measured after 120 mins relative to control.
Test [2] deals with Bacillus spizizenii. Put plainly: Antibacterial activity against Bacillus subtilis ATCC 6633 at 3.1 ug/ml by plate assay. Particulars: read-out: IZ.
The subject of test [3] is L1210. Put plainly: Antitumor activity against mouse L1210 cells allografted in mouse assessed as tumor growth inhibition at 0.64 mg/kg, ip relative to control. Particulars: route intraperitoneal.
Test [4] deals with L1210. In words: Antitumor activity against mouse L1210 cells allografted in mouse assessed as tumor growth inhibition at 0.25 to 32 mg/kg, ip relative to control. Particulars: dose mg/kg 0.25-32; route intraperitoneal.
Test [5] has as its system Bacillus spizizenii. In words: Antibacterial activity against Bacillus subtilis ATCC 6633 at 50 ug/ml by plate assay. Particulars: read-out: IZ.
Test [6] has as its system Enterobacteria phage lambda. In words: Induction of lambda phage production in Escherichia coli W1709 (lambda) assessed as plaque formation up to 50 ug/ml preincubated for 30 mins followed by heart infusion broth and glucose addition measured after 120 mins.

The source made the active and inactive calls. The calls are words filed in the database; no cut-off is given here. A value given as a limit tells only on which side of the number the result lay.

Consider `CC(=O)[C@]1(O)Cc2c(O)c3c(c(O)c2[C@@H](O[C@H]2C[C@H](N)[C@H](O)[C@H](C)O2)C1)C(=O)c1c(O)cccc1C3=O` [CARUBICIN], for which the values for the T/C in test [1] and in test [3] were 6.2 and 157, respectively. The zone of inhibition at 3.1 µg/mL in test [2] came to 19 mm.

Turning to `CC(=O)[C@]1(O)Cc2c(O)c3c(c(O)c2[C@@H](S[C@H]2CCC[C@@H](N)C2)C1)C(=O)c1c(O)cccc1C3=O`, the T/C in test [4] is reported as under 125. Further, in test [5], the zone of inhibition at 50 µg/mL is 10.3 mm. Moreover, in test [6], the result was inactive.

As for `CC(=O)[C@]1(O)Cc2c(O)c3c(c(O)c2[C@@H](S[C@@H]2CCC[C@@H](N)C2)C1)C(=O)c1c(O)cccc1C3=O`, in test [5], the zone of inhibition at 50 µg/mL was determined as 10.5 mm. Also, in test [6], the outcome was inactive.
